Values of other authors as cited in patent publication EP3957364A1, “A BINDING MOLECULE SPECIFICALLY BINDING TO HUMAN CD4 FOR USE IN THE TREATMENT OF PULMONARY DISEASES” (Fraunhofer-Gesellschaft zur Förderung der angewandten …, priority 2020, dated 2022).

Target: CD4 (Homo sapiens, UniProt P01730)
Settings: reported, no source named

Substance: TbYICbEbVEDQKAcEE
- inhibition of CD4 binding of gp120 and MAX.16H5 IgG1 (or 16H5.chimlgG4): inhibit CD4 binding of both gp120 and MAX.16H5 IgG1
